Read-outs that look alike come from different tables or passages of the source.
Key:
[1] = test system: Chinese Hamster Ovary (CHO) cells genetically engineered to produce the Anti VEGF-A antibody; conditions: for Residual Lactate: fedbatch; for further reduction in the accumulation of lactate in presence of said salt (versus control) / reduction of the accumulation of lactate in the media with the added salt: over the run till 7th day
Method: (§1) In another embodiment of the present disclosure, the level of lactate in the medium is analyzed using the device YSI 7100 MBS Analyzer.
(§2) The level of lactate is analyzed for all the following experiments in the below examples by the use of the YSI 7100 MBS Analyzer. The pH for all the below experiments as recited in the following examples are maintained between pH 6.85-7.2. The level of Oxygen is also maintained by the oxygen levels are maintained by agitation in the shaker incubator. In all the below mentioned examples, the concentration of the added salt is the concentration of the salt as present in the medium. The temperature can be suitably varied, based on the nature of the cells used and other related parameters.
(§3) The cell culturing was performed in fedbatch mode. In the cell culture, the mammalian host cells used were Chinese Hamster Ovary (CHO) cells and HyClone CDM4NS0 culture medium was supplied initially. The CHO cells were genetically engineered to produce the Anti VEGF-A antibody. The copper sulphate pentahydrate salt was added in the medium at a concentration of 0.4 mM. In contrast, there was no addition of any copper salt in the control medium. The production fermentation run started with an initial cell count of 0.3-0.45×10^6 cells/ml at 37±1° C., the first 3-4 days were dedicated to grow the cells in batch phase. In the next step, the temperature is lowered to 31+/−1° C. and the run is continued till 7th day. […] The produced Anti VEGF-A antibody was then collected from the media using the technique of Affinity Chromatography.
as §3, with “fedbatch.” for “fedbatch mode.”, “zinc” for “copper”, “hepta hydrate” for “pentahydrate”
as §3, with “fedbatch mode is employed.” for “fedbatch mode.”, “VEGF-A Antibody.” for “VEGF-A antibody.”, “salt is also” for “salt was”, “of 0.2” for “of 0.4”, “to 31±1°” for “to 31+/−1°”, “VEGF-A Antibody” for “VEGF-A antibody”
The cell culturing was performed in fedbatch mode. In the cell culture, the mammalian host cell used were Chinese Hamster Ovary (CHO) cells and HyClone CDM4NS0 culture medium was supplied initially. The CHO cells were genetically engineered to produce the Anti VEGF-A Antibody. The zinc sulphate hepta hydrate salt is also added in the medium at a concentration of 0.2 mM. In contrast, there was no addition of any zinc salt in the control medium.

[2] = test system: Chinese Hamster Ovary (CHO) cells genetically engineered to produce the Anti Her-2 antibody; conditions: for Residual Lactate: salt 0.4 mM in HyClone CDM4NS0 medium, fedbatch; for further reduction in the accumulation of lactate in presence of said salt (versus control) / reduction of the accumulation of lactate in the media with the added salt: salt 0.4 mM, over the run till 7th day
Method: as §1, §2
as §3, with “Her-2” for “VEGF-A”
as §3, with “Her-2” for “VEGF-A”, “zinc” for “copper”, “hepta hydrate” for “pentahydrate”

[3] = test system: Chinese Hamster Ovary (CHO) cells genetically engineered to produce the Anti TNF antibody; conditions: for Residual Lactate: salt 0.4 mM in HyClone CDM4NS0 medium, fedbatch; for further reduction in the accumulation of lactate in presence of said salt (versus control) / reduction of the accumulation of lactate in the media with the added salt: salt 0.4 mM, over the run till 7th day
Method: as §1, §2
as §3, with “Anti TNF” for “Anti VEGF-A”, “salt is also” for “salt was”, “to 31±1°” for “to 31+/−1°”
(§4) The cell culturing was performed in a fedbatch mode. In the cell culture, the mammalian host cells used were Chinese Hamster Ovary (CHO) cells and HyClone CDM4NS0 culture medium was supplied initially. The CHO cells were genetically engineered to produce the Anti TNF antibody. The zinc sulphate hepta hydrate salt is also added in the medium at a concentration of 0.4 mM. In contrast, there was no addition of any zinc salt in the control medium. The production fermentation run started with an initial cell count of 0.3-0.45×10^6 cells/ml at 37±1° C., the first 3-4 days were dedicated to grow the cells in batch phase. In the next step, the temperature is lowered to 31±1° C. and the run is continued till 7th day. […] The produced Anti TNF antibody was then collected from the media using the technique of Affinity Chromatography.

[4] = test system: Chinese Hamster Ovary (CHO) cells genetically engineered to produce the Anti CD6 Antibody; conditions: for Residual Lactate: salt 0.4 mM in HyClone CDM4NS0 medium, fedbatch
Method: as §1, §2
as §4, with “in” for “in a”, “cellculture,” for “cell culture,”, “CD6 Antibody.” for “TNF antibody.”, “is” for “is also”, “CD6 Antibody” for “TNF antibody”

[5] = salt 0.2 mM in HyClone CDM4NS0 medium, age 72 hours
[6] = salt 0.2 mM in HyClone CDM4NS0 medium, age 96 hours
[7] = salt 0.2 mM in HyClone CDM4NS0 medium, age 120 hours
[8] = salt 0.2 mM in HyClone CDM4NS0 medium, age 144 hours
[9] = salt 0.2 mM in HyClone CDM4NS0 medium, age 168 hours
[10] = salt 0.4 mM in HyClone CDM4NS0 medium, age 72 hours
[11] = salt 0.4 mM in HyClone CDM4NS0 medium, age 96 hours
[12] = salt 0.4 mM in HyClone CDM4NS0 medium, age 120 hours
[13] = salt 0.4 mM in HyClone CDM4NS0 medium, age 144 hours
[14] = salt 0.4 mM in HyClone CDM4NS0 medium, age 168 hours
[15] = salt 0.4 mM, over the run till 7th day

Row | Structure (SMILES) | Residual Lactate [1, 5] [mM] | Residual Lactate [1, 6] [mM] | Residual Lactate [1, 7] [mM] | Residual Lactate [1, 8] [mM] | Residual Lactate [1, 9] [mM] | further reduction in the accumulation of lactate in presence of said salt (versus control) ([1]; salt 0.2 mM) | reduction of the accumulation of lactate in the media with the added salt ([1]; salt 0.2 mM) | Residual Lactate [1, 10] [mM] | Residual Lactate [1, 11] [mM] | Residual Lactate [1, 12] [mM] | Residual Lactate [1, 13] [mM] | Residual Lactate [1, 14] [mM] | further reduction in the accumulation of lactate in presence of said salt (versus control) ([1]; salt 0.4 mM) | reduction of the accumulation of lactate in the media with the added salt ([1]; salt 0.4 mM) | Residual Lactate ([2]; age 72 hours) [mM] | Residual Lactate ([2]; age 96 hours) [mM] | Residual Lactate ([2]; age 120 hours) [mM] | Residual Lactate ([2]; age 144 hours) [mM] | Residual Lactate ([2]; age 168 hours) [mM] | further reduction in the accumulation of lactate in presence of said salt (versus control) [2] | also measured
1 | O.O.O.O.O.O=S(=O)([O-])[O-].[Cu+2] [Copper salt, copper sulphate pentahydrate] | 23.3 | 14.9 | 7.9 | 5.8 | 2.7 | about 6.17% | about 85.40% | 16 | 14.8 | 5.9 | 3.4 | 2 | about 26.5% | about 87.5% | 16 | 11.8 | 7.4 | 6.9 | 5.6 | about 14.5% | reduction of the accumulation of lactate in the media with the added salt [2]: about 65%; Residual Lactate ([3]; age 72 hours): 20.4 mM; Residual Lactate ([3]; age 96 hours): 20.3 mM; Residual Lactate ([3]; age 120 hours): 16.3 mM; Residual Lactate ([3]; age 144 hours): 13.2 mM; Residual Lactate ([3]; age 168 hours): 14.6 mM; further reduction in the accumulation of lactate in presence of said salt (versus control) [3]: about 13.05%; reduction of the accumulation of lactate in the media with the added salt [3]: about 28.43%
2 | O.O.O.O.O.O.O.O=S(=O)([O-])[O-].[Zn+2] [Zinc salt, zinc sulphate hepta hydrate] | 23.3 | 16.3 | 10 | 5.9 | 3.4 | about 9.18% | about 88.41% | 16.6 | 14.7 | 7.6 | 6.2 | 4.5 | about 11.57% | about 72.89% | 16 | 11.8 | 7.4 | 6.9 | 5.6 | about 30.38% | reduction of the accumulation of lactate in the media with the added salt [2]: about 64.88%; Residual Lactate ([4]; age 72 hours): 18 mM; Residual Lactate ([4]; age 96 hours): 11.2 mM; Residual Lactate ([4]; age 120 hours): 6.2 mM; Residual Lactate ([4]; age 144 hours): 3 mM; Residual Lactate ([4]; age 168 hours): 3.2 mM; further reduction in the accumulation of lactate in presence of said salt (versus control) [4, 15]: about 11.67%; reduction of the accumulation of lactate in the media with the added salt [4, 15]: about 82.22%; Residual Lactate ([3]; age 96 hours): 19.6 mM; Residual Lactate ([3]; age 120 hours): 16.4 mM; Residual Lactate ([3]; age 144 hours): 13.8 mM; Residual Lactate ([3]; age 168 hours): 15 mM; further reduction in the accumulation of lactate in presence of said salt (versus control) [3]: about 6.09%; reduction of the accumulation of lactate in the media with the added salt [3]: about 23.46%

Source: US9670519B2, “Methods for reducing accumulation of lactate during culturing and method for producing polypeptide” (Biocon Limited, priority 2011, dated 2017)
